# Values quoted from earlier work in patent US20160303150A1, “DEUTERATED TREHALOSE FORMULATIONS AND USES THEREOF” (BioBlast Pharma Ltd., priority 2015, published 2016).
# What was measured:
# [1] = in vivo
# [2] = 0.2%-5% trehalose in drinking water, 5-9 weeks, transgenic HD mice
structure (smiles),measurement,setting,value
"OC[C@H]1O[C@H](O[C@H]2O[C@H](CO)[C@@H](O)[C@H](O)[C@H]2O)[C@H](O)[C@@H](O)[C@@H]1O [trehalose, α-G-glucopyranosyl α-D-glucopyranoside]",fraction of administered trehalose not absorbed into the blood stream,[1],over 99.5%
same,HD-related motor symptoms,transgenic HD mice; [2],improvement of HD-related motor symptoms
same,formation of intra-nuclear huntingtin aggregates in the brain and liver,transgenic HD mice; [2],inhibition of formation of intra-nuclear huntingtin aggregates in the brain and liver
same,survival,"transgenic HD mice; oral administration, HD mouse model",extend survival
same,aggregation formation and toxicity of mutant PABPN1 in myocytes,"transgenic OPMD mice; 2% trehalose in drinking water, 4-6 months",significantly reduce aggregation formation and toxicity of the mutant PABPN1 in myocytes
same,"OPMD onset, disease phenotype, aggregate formation and cell death",transgenic OPMD mice; oral trehalose,"delay the OPMD onset, attenuate the disease phenotype, decrease polyalanine protein aggregate formation and decrease cell death"
same,oral amount causing diarrhea and bloating,oral,40-50 gram per day
same,safety findings in healthy volunteers,"oral doses ranging from 10 to 60 gr, healthy volunteers",no other safety issues were reported
same,"oral amount frequently causing diarrhea, bloating and discomfort","oral, humans",higher than 50 g a day
